# Data: ChEMBL document CHEMBL1629418, “Spiroimidazolidinone NPC1L1 inhibitors. Part 2: structure-activity studies and in vivo efficacy” (Bioorg Med Chem Lett, 2010)
# Molecular target: T1, NPC1-like intracellular cholesterol transporter 1 (Homo sapiens, UniProt Q9UHC9)
# T1 sequence (Q9UHC9 whole entry): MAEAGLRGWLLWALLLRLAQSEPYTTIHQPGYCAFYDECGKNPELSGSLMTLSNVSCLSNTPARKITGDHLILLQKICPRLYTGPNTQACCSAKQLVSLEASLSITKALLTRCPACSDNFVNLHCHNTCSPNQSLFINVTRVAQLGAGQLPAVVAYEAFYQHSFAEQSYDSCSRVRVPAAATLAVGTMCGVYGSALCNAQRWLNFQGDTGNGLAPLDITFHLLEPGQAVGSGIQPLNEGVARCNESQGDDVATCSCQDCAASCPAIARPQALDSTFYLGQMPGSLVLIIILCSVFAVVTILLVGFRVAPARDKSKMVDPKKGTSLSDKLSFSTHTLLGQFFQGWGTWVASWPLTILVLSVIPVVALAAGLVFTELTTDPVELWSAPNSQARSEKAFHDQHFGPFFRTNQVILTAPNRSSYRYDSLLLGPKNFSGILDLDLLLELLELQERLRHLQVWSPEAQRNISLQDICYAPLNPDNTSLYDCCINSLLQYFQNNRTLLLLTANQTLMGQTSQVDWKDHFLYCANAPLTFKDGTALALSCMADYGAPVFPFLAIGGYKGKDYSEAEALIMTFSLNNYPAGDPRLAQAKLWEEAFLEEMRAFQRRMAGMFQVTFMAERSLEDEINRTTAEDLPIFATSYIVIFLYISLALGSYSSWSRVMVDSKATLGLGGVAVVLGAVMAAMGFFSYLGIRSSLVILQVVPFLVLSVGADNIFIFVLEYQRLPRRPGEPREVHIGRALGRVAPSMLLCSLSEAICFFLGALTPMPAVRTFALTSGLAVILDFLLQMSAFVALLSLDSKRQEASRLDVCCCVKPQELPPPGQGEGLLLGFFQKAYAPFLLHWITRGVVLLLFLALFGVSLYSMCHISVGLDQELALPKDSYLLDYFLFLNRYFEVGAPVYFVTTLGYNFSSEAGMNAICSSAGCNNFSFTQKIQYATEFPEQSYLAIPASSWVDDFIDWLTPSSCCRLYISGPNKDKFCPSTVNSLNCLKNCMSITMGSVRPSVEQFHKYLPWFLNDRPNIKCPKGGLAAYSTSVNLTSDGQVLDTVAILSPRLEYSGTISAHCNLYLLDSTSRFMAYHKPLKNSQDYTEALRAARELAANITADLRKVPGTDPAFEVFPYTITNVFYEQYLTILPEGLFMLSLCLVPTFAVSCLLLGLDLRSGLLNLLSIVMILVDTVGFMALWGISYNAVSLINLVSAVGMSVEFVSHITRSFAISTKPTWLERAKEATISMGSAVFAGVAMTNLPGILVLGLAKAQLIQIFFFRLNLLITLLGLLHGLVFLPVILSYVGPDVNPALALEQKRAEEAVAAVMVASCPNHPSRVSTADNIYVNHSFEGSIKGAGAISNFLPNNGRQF
# Test: Displacement of [35S](2S,3S,4S,5R,6S)-6-(4-((2S,3R)-3-((S)-3-(4-fluorophenyl)-3-hydroxypropyl)-1-(4-(3-(methylsulfonamido)prop-1-ynyl)phenyl)-4-oxoazetidin-2-yl)phenoxy)-3,4,5-trihydroxytetrahydro-2H-pyran-2-carboxylic acid from human NCP1L1 expressed in HEK 293
# Type: cell-based, HEK293
row,SMILES,IC50
1,CC(C)(C)OC(=O)NCCCNC(=O)CN1CN(c2ccccc2)C2(CCN(C(=O)c3ccc(C4CCCCC4)cc3)CC2)C1=O,3.7 µM
2,COC(=O)CCNC(=O)CN1CN(c2ccccc2)C2(CCN(C(=O)c3ccc(C4CCCCC4)cc3)CC2)C1=O,4.5 µM
3,CC(C)(C)c1ccc(C(=O)N2CCC3(CC2)C(=O)N(CC(=O)NCCCO)CN3c2ccccc2)cc1,23.6 µM
4,CC(C)(C)c1ccc(C(=O)N2CCC3(CC2)C(=O)N(CC(=O)NCCNS(C)(=O)=O)CN3c2ccccc2)cc1,49 µM
5,NC(=O)C1CCCN(C(=O)CN2CN(c3ccccc3)C3(CCN(C(=O)c4ccc(C5CCCCC5)cc4)CC3)C2=O)C1 (stereo not drawn),3.1 µM
6,CC(C)(C)c1ccc(C(=O)N2CCC3(CC2)C(=O)N(CC(=O)N2CCCC(CO)C2)CN3c2ccccc2)cc1 (stereo not drawn),8.2 µM
7,CC(C)(C)OC(=O)NCC1CCCN(C(=O)CN2CN(c3ccccc3)C3(CCN(C(=O)c4ccc(C(C)(C)C)cc4)CC3)C2=O)C1 (stereo not drawn),9.5 µM
8,CCOC(=O)C1CCCN(C(=O)CN2CN(c3ccccc3)C3(CCN(C(=O)c4ccc(C5CCCCC5)cc4)CC3)C2=O)C1 (stereo not drawn),4.2 µM
9,CC(C)(C)c1ccc(C(=O)N2CCC3(CC2)C(=O)N(CC(=O)N2CCNCC2)CN3c2ccccc2)cc1,22 µM
10,CC(C)(C)c1ccc(C(=O)N2CCC3(CC2)C(=O)N(CC(=O)NCCC(=O)O)CN3c2ccccc2)cc1,23.6 µM
11,CC(C)(C)OC(=O)NC1CCCN(C(=O)CN2CN(c3ccccc3)C3(CCN(C(=O)c4ccc(C5CCCCC5)cc4)CC3)C2=O)C1 (stereo not drawn),4.4 µM
12,CCc1nn(CC)c(C2CCN(C(=O)CN3CN(c4ccccc4)C4(CCN(C(=O)c5ccc(C(C)(C)C)cc5)CC4)C3=O)CC2)c1CC,4.6 µM
13,O=C(CN1CN(c2ccccc2)C2(CCN(C(=O)c3ccc(C4CCCCC4)cc3)CC2)C1=O)N1CCCCC1,1.1 µM
14,COC(=O)CNC(=O)CN1CN(c2ccccc2)C2(CCN(C(=O)c3ccc(C(C)(C)C)cc3)CC2)C1=O,16.6 µM
15,O=C(CN1CN(c2ccccc2)C2(CCN(C(=O)c3ccc(C4CCCCC4)cc3)CC2)C1=O)N1CCC(CO)CC1,1.1 µM
16,CC(C)(C)OC(=O)NCC1CCN(C(=O)CN2CN(c3ccccc3)C3(CCN(C(=O)c4ccc(C(C)(C)C)cc4)CC3)C2=O)CC1,4.2 µM
17,CS(=O)(=O)NCCNC(=O)CN1CN(c2ccccc2)C2(CCN(C(=O)c3ccc(C4CCCCC4)cc3)CC2)C1=O,7 µM
18,NCCCNC(=O)CN1CN(c2ccccc2)C2(CCN(C(=O)c3ccc(C4CCCCC4)cc3)CC2)C1=O,3.1 µM
19,CC(C)(C)OC(=O)NCCNC(=O)CN1CN(c2ccccc2)C2(CCN(C(=O)c3ccc(C(C)(C)C)cc3)CC2)C1=O,9.4 µM
20,CC(C)(C)c1ccc(C(=O)N2CCC3(CC2)C(=O)N(CC(=O)N2CCN(S(=O)(=O)c4ccccc4)CC2)CN3c2ccccc2)cc1,15 µM

row,SMILES,IC50
1,CC(C)(C)OC(=O)NCCCCNC(=O)CN1CN(c2ccccc2)C2(CCN(C(=O)c3ccc(C4CCCCC4)cc3)CC2)C1=O,5.5 µM
2,CC(C)(C)c1ccc(C(=O)N2CCC3(CC2)C(=O)N(CC(=O)NCCN)CN3c2ccccc2)cc1,59 µM
3,CC(C)(C)OC(=O)NC1CCN(C(=O)CN2CN(c3ccccc3)C3(CCN(C(=O)c4ccc(C5CCCCC5)cc4)CC3)C2=O)CC1,4.8 µM
4,CCN(CC)C(=O)C1CCCN(C(=O)CN2CN(c3ccccc3)C3(CCN(C(=O)c4ccc(C(C)(C)C)cc4)CC3)C2=O)C1 (stereo not drawn),8.7 µM
5,CS(=O)(=O)N1CCN(C(=O)CN2CN(c3ccccc3)C3(CCN(C(=O)c4ccc(C5CCCCC5)cc4)CC3)C2=O)CC1,6.3 µM
6,CCC1CCCN(C(=O)CN2CN(c3ccccc3)C3(CCN(C(=O)c4ccc(C(C)(C)C)cc4)CC3)C2=O)C1 (stereo not drawn),3.9 µM
7,CC(C)(C)OC(=O)NCC1CCCN(C(=O)CN2CN(c3ccccc3)C3(CCN(C(=O)c4ccc(C5CCCCC5)cc4)CC3)C2=O)C1 (stereo not drawn),3.8 µM
8,CC(C)(C)c1ccc(C(=O)N2CCC3(CC2)C(=O)N(CC(=O)N2CCCCC2CO)CN3c2ccccc2)cc1 (stereo not drawn),11.8 µM
9,CCOC(=O)C1CCCN(C(=O)CN2CN(c3ccccc3)C3(CCN(C(=O)c4ccc(C(C)(C)C)cc4)CC3)C2=O)C1 (stereo not drawn),8.2 µM
10,CCC1CCCN(C(=O)CN2CN(c3ccccc3)C3(CCN(C(=O)c4ccc(C5CCCCC5)cc4)CC3)C2=O)C1 (stereo not drawn),2.6 µM
11,CC(C)(C)c1ccc(C(=O)N2CCC3(CC2)C(=O)N(CC(=O)N2CCN(S(C)(=O)=O)CC2)CN3c2ccccc2)cc1,19 µM
12,CC(C)(C)c1ccc(C(=O)N2CCC3(CC2)C(=O)N(CC(=O)NCCCCCN)CN3c2ccccc2)cc1,7.7 µM
13,CC1(C)CC(OC(=O)CN2CN(c3ccccc3)C3(CCN(C(=O)c4ccc(C(C)(C)C)cc4)CC3)C2=O)CC(C)(C)N1,1.3 µM
14,COC(=O)CNC(=O)CN1CN(c2ccccc2)C2(CCN(C(=O)c3ccc(C4CCCCC4)cc3)CC2)C1=O,3.7 µM
15,CC(C)(C)OC(=O)NCCCCCNC(=O)CN1CN(c2ccccc2)C2(CCN(C(=O)c3ccc(C(C)(C)C)cc3)CC2)C1=O,3.1 µM
16,CCOC(=O)C1CCN(C(=O)CN2CN(c3ccccc3)C3(CCN(C(=O)c4ccc(C(C)(C)C)cc4)CC3)C2=O)CC1,3.1 µM
17,CC(C)(C)c1ccc(C(=O)N2CCC3(CC2)C(=O)N(CC(=O)NCCCCN)CN3c2ccccc2)cc1,14 µM
18,CC(C)(C)OC(=O)NCC1CCN(C(=O)CN2CN(c3ccccc3)C3(CCN(C(=O)c4ccc(C5CCCCC5)cc4)CC3)C2=O)CC1,2.5 µM
19,CC(C)(C)c1ccc(C(=O)N2CCC3(CC2)C(=O)N(CC(=O)N2CCC(O)CC2)CN3c2ccccc2)cc1,4.7 µM
20,CC(C)(C)OC(=O)NC1CCN(C(=O)CN2CN(c3ccccc3)C3(CCN(C(=O)c4ccc(C(C)(C)C)cc4)CC3)C2=O)CC1,8.3 µM

row,SMILES,IC50
1,COC(=O)CCCNC(=O)CN1CN(c2ccccc2)C2(CCN(C(=O)c3ccc(C4CCCCC4)cc3)CC2)C1=O,4.5 µM
2,CC1CCCN(C(=O)CN2CN(c3ccccc3)C3(CCN(C(=O)c4ccc(C5CCCCC5)cc4)CC3)C2=O)C1 (stereo not drawn),3.6 µM
3,O=C(CN1CN(c2ccccc2)C2(CCN(C(=O)c3ccc(C4CCCCC4)cc3)CC2)C1=O)N1CCN(S(=O)(=O)c2ccccc2)CC1,14.2 µM
4,CC1(C)CC(OC(=O)CN2CN(c3ccccc3)C3(CCN(C(=O)c4ccc(C5CCCCC5)cc4)CC3)C2=O)CC(C)(C)N1,0.6 µM
5,CC(C)(C)c1ccc(C(=O)N2CCC3(CC2)C(=O)N(CC(=O)NCCCN)CN3c2ccccc2)cc1,49 µM
6,CCc1c(C)c(C2CCN(C(=O)CN3CN(c4ccccc4)C4(CCN(C(=O)c5ccc(C(C)(C)C)cc5)CC4)C3=O)CC2)nn1CC,5.4 µM
7,CC(C)(C)c1ccc(C(=O)N2CCC3(CC2)C(=O)N(CC(=O)NCCCCCO)CN3c2ccccc2)cc1,3.8 µM
8,CC(C)(C)OC(=O)NC1CCCN(C(=O)CN2CN(c3ccccc3)C3(CCN(C(=O)c4ccc(C(C)(C)C)cc4)CC3)C2=O)C1 (stereo not drawn),4.2 µM
9,CCn1nc(Cc2ccccc2)cc1C1CCN(C(=O)CN2CN(c3ccccc3)C3(CCN(C(=O)c4ccc(C(C)(C)C)cc4)CC3)C2=O)CC1,6.4 µM
10,CCN(CC)C(=O)C1CCCN(C(=O)CN2CN(c3ccccc3)C3(CCN(C(=O)c4ccc(C5CCCCC5)cc4)CC3)C2=O)C1 (stereo not drawn),3.3 µM
11,CC(C)(C)OC(=O)NCCCNC(=O)CN1CN(c2ccccc2)C2(CCN(C(=O)c3ccc(C(C)(C)C)cc3)CC2)C1=O,3.2 µM
12,CC(C)(C)c1ccc(C(=O)N2CCC3(CC2)C(=O)N(CC(=O)N2CCCC(C(N)=O)C2)CN3c2ccccc2)cc1 (stereo not drawn),16.9 µM
13,CC(C)(C)c1ccc(C(=O)N2CCC3(CC2)C(=O)N(CC(=O)N2CCC(CO)CC2)CN3c2ccccc2)cc1,4 µM
14,CC(C)(C)c1ccc(C(=O)N2CCC3(CC2)C(=O)N(CC(=O)N2CCCCC2CCO)CN3c2ccccc2)cc1 (stereo not drawn),6.1 µM
15,CC1CCCN(C(=O)CN2CN(c3ccccc3)C3(CCN(C(=O)c4ccc(C(C)(C)C)cc4)CC3)C2=O)C1 (stereo not drawn),12 µM
16,CC(C)(C)c1ccc(C(=O)N2CCC3(CC2)C(=O)N(CC(=O)NCCCCO)CN3c2ccccc2)cc1,8.3 µM
17,CC(C)(C)OC(=O)NCNC(=O)CN1CN(c2ccccc2)C2(CCN(C(=O)c3ccc(C(C)(C)C)cc3)CC2)C1=O,59 µM
18,CC(C)(C)OC(=O)NCCNC(=O)CN1CN(c2ccccc2)C2(CCN(C(=O)c3ccc(C4CCCCC4)cc3)CC2)C1=O,13.7 µM
